Measured values published in patent US11370798B2 (Vertex Pharmaceuticals Incorporated, priority 2012, dated 2022).

System: HCT116 colorectal cancer cells
Experiment: Cisplatin sensitization assay (96 h cell viability MTS);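 also: Test-compound concentration that lowers the Cisplatin IC50 by a set fold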
Format: cell-based
Conditions: compound and Cisplatin added simultaneously, Cisplatin sensitization value
Outline: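 Compound and cisplatin added together as a full matrix of 2-fold serial dilutions from a top final concentration of 10 μM; cells incubated 96 h at 37° C, 5% CO2. Viability then read by MTS after 1 h further incubation; sensitization value reported in μM bins.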

SMILES | Cisplatin Sensitization Assay
CN(C)[C@@H]1CCN(C(=O)C2CCN(c3c(F)cncc3NC(=O)c3c(N)nn4cc(F)cnc34)CC2)C1 [I-G-11, (R)-2-amino-N-(4-(4-(3-(dimethylamino)pyrrolidine-1-carbonyl)piperidin-1-yl)-5-fluoropyridin-3-yl)-6-fluoropyrazolo[1,5-a]pyrimidine-3-carboxamide] | +++ (Cisplatin sensitization value of <0.02 μM)
CN1CCC[C@@H]1C(=O)N1CCN(c2ccncc2NC(=O)c2c(N)nn3cc(F)cnc23)CC1 [I-N-199, (R)-2-amino-6-fluoro-N-(4-(4-(1-methylpyrrolidine-2-carbonyl)piperazin-1-yl)pyridin-3-yl)pyrazolo[1,5-a]pyrimidine-3-carboxamide] | +++ (Cisplatin sensitization value of <0.02 μM)
CN1CCN(C(=O)C2CCN(c3c(F)cncc3NC(=O)c3c(N)nn4cc(Cl)cnc34)CC2)CC1 [I-G-5, 2-amino-6-chloro-N-(5-fluoro-4-(4-(4-methylpiperazine-1-carbonyl)piperidin-1-yl)pyridin-3-yl)pyrazolo[1,5-a]pyrimidine-3-carboxamide] | +++ (Cisplatin sensitization value of <0.02 μM)
COC1CN(C(=O)C2CCN(c3ccncc3NC(=O)c3c(N)nn4cc(F)cnc34)CC2)C1 [I-G-78, 2-amino-6-fluoro-N-(4-(4-(3-methoxyazetidine-1-carbonyl)piperidin-1-yl)pyridin-3-yl)pyrazolo[1,5-a]pyrimidine-3-carboxamide] | +++ (Cisplatin sensitization value of <0.02 μM)
Nc1nn2cc(Cl)cnc2c1C(=O)Nc1cnccc1OC1CC2(CNC2)C1 [I-O-72, N-(4-(2-azaspiro[3.3]heptan-6-yloxy)pyridin-3-yl)-2-amino-6-chloropyrazolo[1,5-a]pyrimidine-3-carboxamide] | + (Cisplatin sensitization value>0.2 μM but <5 μM)
CN1CCN(c2c(F)cncc2NC(=O)c2c(N)nn3cc(CC#N)cnc23)CC1 [I-N-80, 2-amino-6-(cyanomethyl)-N-(5-fluoro-4-(4-methylpiperazin-1-yl)pyridin-3-yl)pyrazolo[1,5-a]pyrimidine-3-carboxamide] | ++ (Cisplatin sensitization value>0.02 μM but <0.2 μM)
Nc1nn2cc(F)cnc2c1C(=O)Nc1cnccc1N1CCC(C(=O)N2CCC2)CC1 [I-G-77, 2-amino-N-(4-(4-(azetidine-1-carbonyl)piperidin-1-yl)pyridin-3-yl)-6-fluoropyrazolo[1,5-a]pyrimidine-3-carboxamide] | +++ (Cisplatin sensitization value of <0.02 μM)
CN1CC2(CCN(c3c(F)cncc3NC(=O)c3c(N)nn4cc(F)cnc34)CC2)OC1=O [I-N-229, 2-amino-6-fluoro-N-(5-fluoro-4-(3-methyl-2-oxo-1-oxa-3,8-diazaspiro[4.5]decan-8-yl)pyridin-3-yl)pyrazolo[1,5-a]pyrimidine-3-carboxamide] | +++ (Cisplatin sensitization value of <0.02 μM)
COC1(CN(C)C)CCN(c2ccncc2NC(=O)c2c(N)nn3cc(Cl)cnc23)CC1 [I-N-46, 2-amino-6-chloro-N-(4-(4-((dimethylamino)methyl)-4-methoxypiperidin-1-yl)pyridin-3-yl)pyrazolo[1,5-a]pyrimidine-3-carboxamide] | +++ (Cisplatin sensitization value of <0.02 μM)
CN1CCN(C(=O)C2CCN(c3c(Cl)cncc3NC(=O)c3c(N)nn4cc(F)cnc34)CC2)CC1 [I-G-3, 2-amino-N-(5-chloro-4-(4-(4-methylpiperazine-1-carbonyl)piperidin-1-yl)pyridin-3-yl)-6-fluoropyrazolo[1,5-a]pyrimidine-3-carboxamide] | +++ (Cisplatin sensitization value of <0.02 μM)
CN1CCN(c2c(F)cncc2NC(=O)c2c(N)nn3cc(C(C)(C)C#N)cnc23)CC1 [I-N-138, 2-amino-6-(2-cyanopropan-2-yl)-N-(5-fluoro-4-(4-methylpiperazin-1-yl)pyridin-3-yl)pyrazolo[1,5-a]pyrimidine-3-carboxamide] | ++ (Cisplatin sensitization value>0.02 μM but <0.2 μM)
CN1CCN(c2ccc(-c3ccncc3NC(=O)c3c(N)nn4cc(F)cnc34)cn2)CC1 [I-C-21, 2-amino-6-fluoro-N-(6-(4-methylpiperazin-1-yl)-[3,4′-bipyridin]-3′-yl)pyrazolo[1,5-a]pyrimidine-3-carboxamide] | +++ (Cisplatin sensitization value of <0.02 μM)
COC1(C)CN(C(=O)C2CCN(c3ccncc3NC(=O)c3c(N)nn4cc(F)cnc34)CC2)C1 [I-G-79, 2-amino-6-fluoro-N-(4-(4-(3-methoxy-3-methylazetidine-1-carbonyl)piperidin-1-yl)pyridin-3-yl)pyrazolo[1,5-a]pyrimidine-3-carboxamide] | +++ (Cisplatin sensitization value of <0.02 μM)
CN1CCC(c2ccncc2NC(=O)c2c(N)nn3cc(C(C)(C)C#N)cnc23)CC1 [I-C-23, 2-amino-6-(2-cyanopropan-2-yl)-N-(4-(1-methylpiperidin-4-yl)pyridin-3-yl)pyrazolo[1,5-a]pyrimidine-3-carboxamide] | + (Cisplatin sensitization value>0.2 μM but <5 μM)
Nc1nn2cc(F)cnc2c1C(=O)Nc1cnccc1N1CCC(C(=O)N2CCC3(COC3)C2)CC1 [I-G-84, N-(4-(4-(2-oxa-6-azaspiro[3.4]octane-6-carbonyl)piperidin-1-yl)pyridin-3-yl)-2-amino-6-fluoropyrazolo[1,5-a]pyrimidine-3-carboxamide] | +++ (Cisplatin sensitization value of <0.02 μM)
CN1CCC(c2ccncc2NC(=O)c2c(N)nn3cc(F)cnc23)CC1=O (centres unmarked) [I-C-73, 2-amino-6-fluoro-N-(4-(1-methyl-2-oxopiperidin-4-yl)pyridin-3-yl)pyrazolo[1,5-a]pyrimidine-3-carboxamide] | ++ (Cisplatin sensitization value>0.02 μM but <0.2 μM)
Nc1nn2cc(F)cnc2c1C(=O)Nc1cncc(F)c1N1CCC(C(=O)N2CC(N3CCC3)C2)CC1 [I-G-49, N-(4-(4-([1,3′-biazetidine]-1′-carbonyl)piperidin-1-yl)-5-fluoropyridin-3-yl)-2-amino-6-fluoropyrazolo[1,5-a]pyrimidine-3-carboxamide] | +++ (Cisplatin sensitization value of <0.02 μM)
CC1(C)CN(C(=O)C2CCN(c3c(F)cncc3NC(=O)c3c(N)nn4cc(F)cnc34)CC2)CCN1 [I-G-27, 2-amino-N-(4-(4-(3,3-dimethylpiperazine-1-carbonyl)piperidin-1-yl)-5-fluoropyridin-3-yl)-6-fluoropyrazolo[1,5-a]pyrimidine-3-carboxamide] | ++ (Cisplatin sensitization value>0.02 μM but <0.2 μM)
CN(C)CCCNC(=O)C1CCN(c2c(F)cncc2NC(=O)c2c(N)nn3cc(F)cnc23)CC1 [I-G-26, 2-amino-N-(4-(4-((3-(dimethylamino)propyl)carbamoyl)piperidin-1-yl)-5-fluoropyridin-3-yl)-6-fluoropyrazolo[1,5-a]pyrimidine-3-carboxamide] | ++ (Cisplatin sensitization value>0.02 μM but <0.2 μM)
COc1ccncc1NC(=O)c1c(N)nn2cc(F)cnc12 [I-O-4, 2-amino-6-fluoro-N-(4-methoxypyridin-3-yl)pyrazolo[1,5-a]pyrimidine-3-carboxamide] | ++ (Cisplatin sensitization value>0.02 μM but <0.2 μM)
